On the set-up of series [1]: species or system New Zealand rabbits. Conditions: rabbit, in vivo, po; for haematic levels of Josamycin at the 6th hour: 6 h. The method, then:
The determination of the Josamycin levels was performed both by biological way (Grove, D. C., and Randall, W. A., 1955) and by High Pressure Liquid Chromatography (HPLC).

Series [2] is described as follows: in vivo. Also on record: species or system Wistar rats of both sexes. Conditions: rat, rats. Here is the method: (§1) The acute toxicity of the compound of the invention was determined on mice and rats (Swiss mice of both sexes and Wistar rats of both sexes), after oral and intravenous administration of the compound of the invention. It was expressed as an LD50 value, calculated according to the method of Lichtfield and Wilcoxon. The obtained intravenous values were 418 mg/kg in rats and 386 mg/kg in mice.

Series [3] can be described thus: in vivo. Also on record: species or system Swiss mice of both sexes. The conditions noted are these: mouse, mice. Here is the method:
as §1

The subject of another series is male Wistar rats. Put plainly: Chronic toxicity, 3 months. Conditions: 250 mg/kg daily oral or 50 mg/kg daily subcutaneous, body weight, haematic crasis, urinary elimination, biochemical parameters, anatomo-pathology. Format: in vivo. The method, then: Three groups of male Wistar rats (average weight: 155 g) were used in this experiment. A first group received a daily dosage of 250 mg/kg of the compound to be tested by oral route, a second group received a daily amount of 50 mg/kg of the same substance by subcutaneous route, a third group (controls) received nothing. The experiment was carried on for 3 consecutive months.
Since the beginning, as well as during and after the treatment, the animals were constantly monitored with respect to the increase in body weight, the haematic crasis, the urinary elimination and various biochemical parameters. At the end of the treatment, all the animals were sacrificed and subjected to anatomo-pathological investigations.

A further series has as its system pregnant rats. Put plainly: Teratological investigation in pregnant rats. The conditions noted are these: 50 mg/kg s.c. or 300 mg/kg p.o. daily, 1st to 15th day of pregnancy. Format: in vivo.
Another series relates to pregnant rabbits. As to the kind of experiment: Teratological investigation in pregnant rabbits. Conditions: 50 mg/kg s.c. or 300 mg/kg p.o. daily, 7th to 15th day of pregnancy. Format: in vivo.
The subject of the next series is newborns. As to the kind of experiment: Neonatal investigation (growth and survival of the newborns). Format: in vivo. Conditions: 30 days from birth, versus controls.
Series [4] is described as follows: Absorption, haematic and tissue levels (general statement). Format: in vivo.
In series [5] the test system is Josamycin-sensitive bacteria. Put plainly: Antibacterial spectrum in vitro, agar dilution method. Format: cell-based. The conditions noted are these: versus Josamycin.
Series [6] relates to Josamycin-sensitive bacteria. As to the kind of experiment: Antibacterial spectrum in vivo, infected mice. Conditions: versus Josamycin.
The next series in a line: Solubility in water. Format: physicochemical.
Series [7] can be described thus: Toxicity (general statement).
The test system of series [8] is Josamycin-sensitive bacteria. As to the kind of experiment: Antibacterial spectrum (general statement). Conditions: versus Josamycin.
The mark [9] stands for this setting: oral, could not be determined, no deaths up to 5000 mg/kg, read-out: oral LD50.

Where a name gives a salt, the structure may show the parent alone. Read-outs that look alike come from different tables or passages of the source.

These results are taken from patent US4607024A, “Epoxypropylphosphonate salt of jesamycin and pharmaceutical composition containing same” (Schering S.p.A., priority 1983, dated 1986).

`CO[C@@H]1[C@@H](O[C@@H]2O[C@H](C)[C@@H](O[C@H]3C[C@@](C)(O)[C@@H](OC(=O)CC(C)C)[C@H](C)O3)[C@H](N(C)C)[C@H]2O)[C@@H](CC=O)C[C@@H](C)[C@@H](O)/C=C/C=C/C[C@@H](C)OC(=O)C[C@H]1OC(C)=O` [Josamycin, reference compound]: the “haematic levels of Josamycin at the 6th hour” value in series [1] was 0.139 µg/mL.

In the case of `CO[C@@H]1[C@@H](O[C@@H]2O[C@H](C)[C@@H](O[C@H]3C[C@@](C)(O)[C@@H](OC(=O)CC(C)C)[C@H](C)O3)[C@H](N(C)C)[C@H]2O)[C@@H](CC=O)C[C@@H](C)[C@@H](O)/C=C/C=C/C[C@@H](C)OC(=O)C[C@H]1OC(C)=O` [salt of formula (I), salt of the macrolide antibiotic Josamycin with (-)-cis-1,2-epoxypropyl phosphonic acid], the median lethal dose (LD50) – broadly, the dose at which mortality reaches 50% – in “in vivo [2]” (intravenous, read-out: LD50) was 418 mg/kg; in the series “in vivo [2]” (setting [9]), greater than 5000 mg/kg; in the series “in vivo [3]” (intravenous, read-out: LD50), 386 mg/kg; in “in vivo [3]” (setting [9]), greater than 5000 mg/kg. The “alteration of toxic character” value in the series on male Wistar rats was “did not reveal any alteration of toxic character”. For the same compound, the “alteration of the normal embrional or fetal development” value in the series on pregnant rats and with pregnant rabbits was “did not cause any alteration of the normal embrional or fetal development” in each case. Moreover, the “growth and survival of the newborns” value in the series with newborns is given as “comparable with those of the controls”. Moreover, the “duration of haematic levels” value in [1] is reported as “longer lasting”. Also, the “haematic levels of Josamycin at the 6th hour” value in [1] turned out to be 0.297 µg/mL. Moreover, the absorption entry in series [4] (oral route) is on record as “highly absorbed”. Also, the “duration of tissue and haematic levels” value in series [4] (oral route) is “significantly long lasting”. The “tissue and haematic levels relative to equivalent amounts of Josamycin” value in [4] (oral, versus free base and propionate) is listed as “nearly twice”. Moreover, the “haematic levels of Josamycin relative to equivalent dosages of Josamycin” value in [4] (versus free base and propionate) is given as “twice”. For the same compound, the antibacterial spectrum result in [5], in series [6] and in series [8] was “comparable with that of Josamycin” in each case. Also, in the series “Solubility in water”, the solubility in water entry is “high solubility in water”. Also, in series [7], the toxicity result is “very little toxic”.
